One assay concerns Uromyces phaseoli. As to the kind of experiment: whole plant or invertebrate. The settings on record: foliar, read-out: Percent Disease Control, foliar, bean rust.
The next assay deals with Sclerotinia fructicola. As to the kind of experiment: Mycelial growth test. Format: cell-based. The settings on record: Sclerotinia, 72 h, SF, read-out: Percent Fungus Growth Inhibition. The text has this:
| SF = Sclerotinia fructicola

As a reminder, the inhibition is the change of the read-out against control, counted positive when it falls. Take `O=C(Nc1ccccc1)Nc1ccc(Oc2nsnc(Cl)c2=O)cc1` [Compound 29, 3-chloro-5-[4-(3-phenylureido)-phenoxy]-4H--1,2,6-thiadiazin-4-one]: the pest or weed control at 150 ppm in the assay with Uromyces phaseoli was determined as 0%. In the assay with Sclerotinia fructicola, the inhibition at 5 ppm turned out to be 28%, the inhibition at 10 ppm was found to be 31%, the inhibition at 20 ppm turned out to be 0% and the inhibition at 40 ppm is 7%.

On to `O=c1c(Cl)nsnc1Oc1c(Cl)cc(Cl)cc1Cl` [Compound 30, 3-chloro-5-(2,4,6-trichlorophenoxy)-4H--1,2,6-thiadiazin-4-one], for which the pest or weed control at 150 ppm in the assay with Uromyces phaseoli was found to be 100%. Besides, in the assay with Sclerotinia fructicola, the inhibition at 5 ppm came to 50%, the inhibition at 10 ppm stood at 87%, the inhibition at 20 ppm is 97% and the inhibition at 40 ppm is 97%.

On to `O=c1c(Cl)nsnc1Oc1c(Cl)c(Cl)c(Cl)c(Cl)c1Cl` [Compound 31, 3-chloro-5-(pentachlorophenoxy)-4H--1,2,6-thiadiazine-4-one], for which the pest or weed control at 150 ppm with Uromyces phaseoli is 0%. Moreover, in the assay with Sclerotinia fructicola, the inhibition at 5 ppm is 55%, the inhibition at 10 ppm turned out to be 52%, the inhibition at 20 ppm turned out to be 72% and the inhibition at 40 ppm was found to be 52%.

Take `O=c1c(Cl)nsnc1Oc1cccc2ccccc12` [Compound 32, 3-chloro-5(1-naphthoxy)-4H-1,2,6-thiadiazin-4-one]: the pest or weed control at 150 ppm in the assay on Uromyces phaseoli was found to be 90%. In addition, in the assay on Sclerotinia fructicola, the inhibition at 5 ppm was 74%, the inhibition at 10 ppm stood at 79%, the inhibition at 20 ppm came to 76% and the inhibition at 40 ppm worked out at 100%.

As to `O=c1c(Cl)nsnc1Oc1ccccc1Br` [Compound 34, 3-chloro-5-(2-bromophenoxy)-4H-1,2,6,-thiadiazin-4-one], the pest or weed control at 150 ppm with Uromyces phaseoli came to 85%. In the assay with Sclerotinia fructicola, the inhibition at 5 ppm was 33%, the inhibition at 10 ppm turned out to be 72%, the inhibition at 20 ppm came out at 100% and the inhibition at 40 ppm turned out to be 100%.

In the case of `O=C(Nc1ccccc1)Oc1ccc(Oc2nsnc(Cl)c2=O)cc1` [Compound 37, 3-chloro-5-[4-(phenylaminocarbonyloxy)phenoxy]-4H-1,2,6,-thiadiazin-4-one], in the assay on Uromyces phaseoli, the pest or weed control at 150 ppm was found to be 100%. Besides, in the assay on Sclerotinia fructicola, the inhibition at 5 ppm is 30%, the inhibition at 10 ppm was 59%, the inhibition at 20 ppm turned out to be 56% and the inhibition at 40 ppm came to 59%.

As to `O=C(OCc1ccccc1)Oc1ccc(Oc2nsnc(Cl)c2=O)cc1` [Compound 38, 3-chloro-5-[4-(phenylmethoxycarbonyloxy)phenoxyl]-4H-1,2,6-thiadiazin-4-one], the pest or weed control at 150 ppm in the assay on Uromyces phaseoli was found to be 0%. Further, in the assay on Sclerotinia fructicola, the inhibition at 5 ppm stood at 0%, the inhibition at 10 ppm was 0%, the inhibition at 20 ppm was determined as 0% and the inhibition at 40 ppm stood at 8%.

As to `CSc1ccc(Oc2nsnc(Cl)c2=O)cc1` [Compound 39, 3-chloro-5-[(4-methylthio)phenoxy]-4H-1,2,6,-thiadiazin-4-one], in the assay on Uromyces phaseoli, the pest or weed control at 150 ppm turned out to be 98%. In the assay with Sclerotinia fructicola, the inhibition at 5 ppm was determined as 41%, the inhibition at 10 ppm came to 48%, the inhibition at 20 ppm was found to be 63% and the inhibition at 40 ppm was determined as 85%.

As for `C[S+]([O-])c1ccc(Oc2nsnc(Cl)c2=O)cc1` (stereo not drawn) [Compound 40, 3-chloro-5-[(4-methylsulfinyl)phenoxy]-4H-1,2,6,-thiadiazin-4-one], the pest or weed control at 150 ppm in the assay on Uromyces phaseoli stood at 98%. Moreover, in the assay on Sclerotinia fructicola, the inhibition at 5 ppm was 4%, the inhibition at 10 ppm is 59%, the inhibition at 20 ppm came out at 89% and the inhibition at 40 ppm came to 100%.

With `CC(=O)Nc1cccc(Oc2nsnc(Cl)c2=O)c1` [Compound 42, 3-[(3-N--acetylamino)-phenoxy]-5-chloro-4H--1,2,6-thiadiazin-4-one], the pest or weed control at 150 ppm with Uromyces phaseoli is 100%. In addition, in the assay on Sclerotinia fructicola, the inhibition at 5 ppm amounted to 24%, the inhibition at 10 ppm was found to be 35%, the inhibition at 20 ppm was found to be 56% and the inhibition at 40 ppm was 100%.

Consider `CC(=O)Nc1ccccc1Oc1nsnc(Cl)c1=O` [Compound 43, 3-[(2-acetylamino)-phenoxy]-5-chloro-4H--1,2,6-thiadiazin-4-one], for which, in the assay with Uromyces phaseoli, the pest or weed control at 150 ppm worked out at 0%. Further, in the assay with Sclerotinia fructicola, the inhibition at 5 ppm stood at 0%, the inhibition at 10 ppm is 0%, the inhibition at 20 ppm was 17% and the inhibition at 40 ppm was determined as 22%.

Consider `O=c1c(Cl)nsnc1Oc1cccc(C(F)(F)F)c1` [Compound 44, 3-chloro-5-[(3-trifluoromethyl)phenoxy]-4H--1,2,6-thiadiazin-4-one], for which the pest or weed control at 150 ppm in the assay on Uromyces phaseoli worked out at 100%. For the same compound, in the assay with Sclerotinia fructicola, the inhibition at 5 ppm amounted to 76%, the inhibition at 10 ppm stood at 100%, the inhibition at 20 ppm is 100% and the inhibition at 40 ppm came to 100%.

Regarding `O=C(O)Cc1ccccc1Oc1nsnc(Cl)c1=O` [Compound 45, 3-(2-carboxymethylphenoxy)-5-chloro-4H--1,2,6-thiadiazin-4-one], in the assay on Uromyces phaseoli, the pest or weed control at 150 ppm was determined as 95%. For the same compound, in the assay with Sclerotinia fructicola, the inhibition at 5 ppm was found to be 9%, the inhibition at 10 ppm came to 3%, the inhibition at 20 ppm was 38% and the inhibition at 40 ppm is 59%.

Consider `N#CCc1ccc(Oc2nsnc(Cl)c2=O)cc1` [Compound 46, 3-chloro-5-[(4-cyanomethyl)-phenoxy]4H--1,2,6-thiadiazin-4-one], for which, in the assay with Uromyces phaseoli, the pest or weed control at 150 ppm came out at 0%. In the assay on Sclerotinia fructicola, the inhibition at 5 ppm turned out to be 19%, the inhibition at 10 ppm came to 76%, the inhibition at 20 ppm worked out at 81% and the inhibition at 40 ppm was 100%.

Consider `CC(=O)c1ccc(Oc2nsnc(Cl)c2=O)cc1` [Compound 47, 3-(4-acetylphenoxy)-5-chloro-4H--1,2,6-thiadiazin-4-one], for which the pest or weed control at 150 ppm with Uromyces phaseoli was 0%. Moreover, in the assay on Sclerotinia fructicola, the inhibition at 5 ppm was determined as 82%, the inhibition at 10 ppm is 82%, the inhibition at 20 ppm stood at 100% and the inhibition at 40 ppm came to 100%.

As for `CC(=O)c1cccc(Oc2nsnc(Cl)c2=O)c1` [Compound 48, 3-(3-acetylphenoxy)-5-chloro-4H--1,2,6-thiadiazin-4-one], in the assay with Uromyces phaseoli, the pest or weed control at 150 ppm amounted to 100%. For the same compound, in the assay with Sclerotinia fructicola, the inhibition at 5 ppm stood at 82%, the inhibition at 10 ppm worked out at 88%, the inhibition at 20 ppm is 94% and the inhibition at 40 ppm was 100%.

Consider `CC(=O)c1ccccc1Oc1nsnc(Cl)c1=O` [Compound 49, 3-(2-acetylphenoxy)-5-chloro-4H--1,2,6-thiadiazin-4-one], for which the pest or weed control at 150 ppm with Uromyces phaseoli was found to be 100%. Also, in the assay on Sclerotinia fructicola, the inhibition at 5 ppm turned out to be 14%, the inhibition at 10 ppm is 33%, the inhibition at 20 ppm came out at 75% and the inhibition at 40 ppm is 100%.

For the compound `O=C(O)c1ccc(Oc2nsnc(Cl)c2=O)cc1` [Compound 50, 3-(4-carboxyphenoxy)-5-chloro-4H--1,2,6-thiadiazin-4-one], the pest or weed control at 150 ppm in the assay with Uromyces phaseoli amounted to 90%. Further, in the assay on Sclerotinia fructicola, the inhibition at 5 ppm was determined as 59%, the inhibition at 10 ppm amounted to 47%, the inhibition at 20 ppm turned out to be 94% and the inhibition at 40 ppm is 100%.

For the compound `COc1ccc(Cl)c(Oc2nsnc(Cl)c2=O)c1` [Compound 51, 3-chloro-5-[(2-chloro-5-methoxy)phenoxy]-4H--1,2,6-thiadiazin-4-one], the pest or weed control at 150 ppm in the assay on Uromyces phaseoli is 0%. Also, in the assay on Sclerotinia fructicola, the inhibition at 5 ppm is 69%, the inhibition at 10 ppm turned out to be 92%, the inhibition at 20 ppm amounted to 92% and the inhibition at 40 ppm was 100%.

As to `COc1cc(Cl)cc(Oc2nsnc(Cl)c2=O)c1` [Compound 52, 3-chloro-5-[(3-chloro-5-methoxy)phenoxy]-4H--1,2,6-thiadiazin-4-one], the pest or weed control at 150 ppm with Uromyces phaseoli stood at 0%. In addition, in the assay with Sclerotinia fructicola, the inhibition at 5 ppm came out at 65%, the inhibition at 10 ppm stood at 81%, the inhibition at 20 ppm was 100% and the inhibition at 40 ppm stood at 100%.

Consider `O=c1c(Cl)nsnc1Oc1ccc([N+](=O)[O-])cc1Cl` [Compound 53, 3-chloro-5-(2-chloro-4-nitrophenoxy)-4H--1,2,6-thiadiazin-4-one], for which the pest or weed control at 150 ppm in the assay with Uromyces phaseoli stood at 100%. Moreover, in the assay on Sclerotinia fructicola, the inhibition at 5 ppm turned out to be 63%, the inhibition at 10 ppm came out at 89%, the inhibition at 20 ppm is 100% and the inhibition at 40 ppm was 100%.

Values taken from US4450269A, “Mono-5-substituted-3-chloro-4H-1,2,6-thiadiazin-4-one antifungal agents” (FMC Corporation, priority 1980, dated 1984).
